The record followed here is patent US20030040485A1, “alpha/beta-adrenoceptors blockers and angiotensin converting enzyme inhibitors derived from hydroxyphenyl carboxylic acid and alcohol” (priority 2001, published 2003).

The test system of one test is α1-adrenoceptor (aorta). Nature of the test: α-adrenoceptor antagonism, isolated rat aorta, pA2 vs norepinephrine. To be noted: Schild plot, mean ± SEM of six to eight experiments. On the set-up: species or system Wistar rat. Here is the method:
Vascular α-adrenoceptor blocking activity was evaluated in the Wistar rat aorta preparation. Isolated rat aorta preparations were mounted in organ bath and suspended in Krebs solution at 37° C. […] or 75 mM KCl was added to the bath medium after a control concentration-response curve to norepinephrine had been obtained. The tissue was exposed to test compounds for 30 min before rechallenging with norepinephrine. Inhibitions were expressed as percentages of the maximum contraction obtained by the challenge of the tissues with norepinephrine. The 70 mM NaCl on 75 mM KCl solution may to replace with equimolar KCl, if necessary.
The methods published by Huang Y C. et. al. in J Cardiovasc Pharmacol.34, pp.10-20 (1999) and Drug Devel Res. 47, 77-89 (1999). Through referenced and modified method to evaluate, test compounds whether have α1-adrenergic and sertoninergic effect.
Isolated Wistar rat aorta preparations were mounted in organ bath and suspended in Krebs solution (NaCl, 118 mM, KCl, 4.8 mM; CaCl,2.5 mM; MgSO4,1.2 mM; K2PO4,1.2 Mm; […] Mm; glucose, 11 mM) at 37° C. under 1 g resting tension.
Upon balancing for 60 minutes, 10^−10-10^−4 M norepinephrine is administered directly from low concentration to high using 0.5 log unit to gradually increase until the maximum reaction is reached, and this act as the control unit. Then different concentrations of the synthetic testing compounds, 10^−7 M, 10^−6 M, or 10^−5M, are used, and upon 30 minutes of reaction, norepinephrine is used again to complete the cumulative dose. The EC50 value of blocking […] may be obtained from observation of the suppressing effects caused by different concentrations of the synthetic testing compound.
The equation is as follows: […]

The target in test [1] is T1, angiotensin converting enzyme (ACE) (Rattus norvegicus, UniProt P47820).
T1 construct: from tissue; host or cells: rat serum
T1 sequence (P47820 36-1238 limits assumed): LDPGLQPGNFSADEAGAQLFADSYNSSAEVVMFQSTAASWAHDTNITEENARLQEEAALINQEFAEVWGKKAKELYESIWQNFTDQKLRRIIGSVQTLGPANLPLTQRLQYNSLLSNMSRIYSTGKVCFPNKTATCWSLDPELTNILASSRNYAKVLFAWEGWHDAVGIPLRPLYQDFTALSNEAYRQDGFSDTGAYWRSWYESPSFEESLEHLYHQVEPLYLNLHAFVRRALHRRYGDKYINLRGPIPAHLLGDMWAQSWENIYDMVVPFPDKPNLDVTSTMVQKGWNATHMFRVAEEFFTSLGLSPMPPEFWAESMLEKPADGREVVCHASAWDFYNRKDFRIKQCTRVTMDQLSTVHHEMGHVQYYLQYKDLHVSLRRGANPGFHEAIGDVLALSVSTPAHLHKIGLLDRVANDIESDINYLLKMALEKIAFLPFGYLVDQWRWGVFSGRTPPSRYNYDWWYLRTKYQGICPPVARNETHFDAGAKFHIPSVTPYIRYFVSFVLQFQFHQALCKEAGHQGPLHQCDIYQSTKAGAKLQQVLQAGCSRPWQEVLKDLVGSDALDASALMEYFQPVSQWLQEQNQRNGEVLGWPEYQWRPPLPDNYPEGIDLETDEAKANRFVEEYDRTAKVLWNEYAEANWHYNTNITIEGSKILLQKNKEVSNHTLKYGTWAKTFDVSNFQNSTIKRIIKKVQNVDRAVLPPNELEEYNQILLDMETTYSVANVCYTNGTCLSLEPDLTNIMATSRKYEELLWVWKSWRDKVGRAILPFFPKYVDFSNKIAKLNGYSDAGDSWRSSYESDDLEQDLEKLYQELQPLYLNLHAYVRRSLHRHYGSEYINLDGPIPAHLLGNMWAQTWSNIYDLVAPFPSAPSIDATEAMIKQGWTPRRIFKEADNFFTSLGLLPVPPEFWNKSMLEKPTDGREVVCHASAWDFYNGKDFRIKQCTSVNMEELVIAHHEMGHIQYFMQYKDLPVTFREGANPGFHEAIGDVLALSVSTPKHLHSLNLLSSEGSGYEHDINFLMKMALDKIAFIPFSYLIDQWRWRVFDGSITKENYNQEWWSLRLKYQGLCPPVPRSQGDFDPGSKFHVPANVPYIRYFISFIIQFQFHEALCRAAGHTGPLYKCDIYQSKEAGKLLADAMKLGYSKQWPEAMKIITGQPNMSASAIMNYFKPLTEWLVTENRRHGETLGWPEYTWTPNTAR
Nature of the test: ACE inhibitory activity in rat serum (Hycor kit, [3H]-hippuryl-glycyl-glycine). To be noted: mean of three samples. Format: biochemical. How it is done:
ACE value in serum was determined by Hycor kit, rat serum were cultured in 37° C. of [^3H]-hippuryl-glycyl-glycine for 60 minutes. While [^3H]-hippuryl-glycyl-glycine contains three peptide. [^3H] hippuric acid was obtained when extracted of culture solution with ethyl acetate, the content be determined by spectrophotometer. The content in serum sample was as the control group after it was added with 10^−8M, 10^−7M, 10^−6M compounds, then dissolved in PBS.

Turning to `CCOC(=O)C(CCc1ccc(OCC(O)CNCCOc2ccccc2OC)cc1)NC(C)C(=O)N1CCCC1C(=O)O` (mixture of isomers) [compound 6, Labetapril], the “α1 pA2 value, Aorta” value with α1-adrenoceptor (aorta) is listed as 6.93. Moreover, the figures for the “Inhibitory activity of ACE, In Rat Serum” value in test [1] (10^−6M), in test [1] (10^−7M) and in test [1] (10^−8M) were 81%, 67% and 28%, respectively.
For the compound `CCOC(=O)C(CCc1ccccc1)NC(C)C(=O)N1CCCC1C(=O)OCc1ccc(OCC(O)CNC(C)(C)C)c(OC)c1` (stereo not shown) [compound 7, Vanynolpril], the “Inhibitory activity of ACE, In Rat Serum” value was determined as 83% in test [1] (10^−6M), 74% in test [1] (10^−7M) and 35% in test [1] (10^−8M).
